Where two headings read alike, the source gives them in different places.

One data set deals with HeLa. The following applies: HeLa cells; T. Saito et al. 1985; cited from earlier work.
The subject of a further data set is VEGF promoter. In words: Luciferase assay for inhibition of the VEGF promoter in Hep3B-VEGF Luciferase cells. Type of data set: cell-based, human. The following applies: deferoxamine 100 μM, 18-20 h, read-out: IC50 for inhibition of luciferase signal (VEGF promoter).
The next data set concerns secreted VEGF. In words: Secreted VEGF ELISA test in Hep3B-VEGF Luciferase cells under deferoxamine-induced hypoxia. Type of data set: cell-based, human. The following applies: deferoxamine 100 μM, 18-20 h, read-out: IC50 for inhibition of secreted VEGF (ELISA). (In general: An ELISA detects its analyte on a solid surface through an enzyme-linked reagent.)
Data set [1] concerns the target T1, Biot-Hif-1α^786-826/GST-p300^323/423 (Homo sapiens, UniProt Q09472).
T1 construct: the p300 region comprised between the 323-423 aminoacids; made in house; host or cells: E. coli BL21 (DE3), vector pGEX-4T-1
Kind of data set: Inhibition of Hif-1α/p300 interaction, DELFIA fluorescence assay. Type of data set: binding. The following applies: for inhibition of the interaction between Hif-1α and p300 (in words): fluorescency assay adapted from Freedman et al.

A further data set deals with tumor growth. The following applies: tumor-bearing mice; Kung et al. 2004; cited from earlier work.

T1 sequence (Q09472 323-423): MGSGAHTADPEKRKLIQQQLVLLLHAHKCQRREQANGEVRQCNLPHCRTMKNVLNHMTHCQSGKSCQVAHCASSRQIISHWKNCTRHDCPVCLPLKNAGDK

As for `CN1C(=O)[C@]23SS[C@@]1(CO)C(=O)N2[C@H]1Nc2ccccc2C1([C@@]12c4ccccc4N[C@@H]1N1C(=O)[C@]4(CO)SS[C@]1(C(=O)N4C)[C@H]2O)[C@@H]3O` (stereo partly drawn) [11α,11α′-dihydroxy Chaetocin, reference compound], the “cytotoxic activity IC50” value in the data set on HeLa is on record as “about 0.03 μg/mL”.
Usually IC50 stands for the concentration needed to halve the response being measured. With `CN1C(=O)[C@@]23CC4([C@]56C[C@@]78SS[C@@](CO)(C(=O)N7[C@H]5Nc5ccccc56)N(C)C8=O)c5ccccc5N[C@@H]4N2C(=O)[C@]1(CO)SS3` (stereo partly shown) [chaetocin], the half-maximal inhibitory concentration (IC50) with VEGF promoter (Homo sapiens) stood at 40 nM; in the data set with secreted VEGF (Homo sapiens) it was 100 nM; in data set [1], 12500 nM. In the data set on HeLa, the “cytotoxic activity IC50” value is “about 0.03 μg/mL”. In addition, the “inhibition of the interaction between Hif-1α and p300 (in words)” value in data set [1] is “able to inhibit the interaction between Hif-1α and p300”.
Consider `CN1C(=O)[C@]2(Cc3cn(C45C[C@@]67SS[C@@](CO)(C(=O)N6[C@H]4Nc4ccccc45)N(C)C7=O)c4ccccc34)SS[C@@]1(CO)C(=O)N2C` (stereo partly shown) [chaetomin], for which the “tumor growth and hypoxia-induced transcription in the tumor (in words)” value in the data set with tumor growth is “inhibits hypoxia-induced transcription in the tumor and tumor growth”.
Take gliotoxin: the IC50 in the data set on VEGF promoter came to 50 nM; in the data set with secreted VEGF, 200 nM. Besides, in data set [1], the “inhibition of the interaction between Hif-1α and p300 (in words)” value is “able to inhibit the interaction between Hif-1α and p300”.
